Reference: US9034891B2, “Bicyclic heterocyclic spiro compounds” (ISRAEL INSTITUTE FOR BIOLOGICAL RESEARCH, priority 2009, dated 2015)

Experiments:
M1 mAChR [1] = biological target: T1, M1 mAChR (Homo sapiens, UniProt P11229); assay: Intracellular Ca2+ mobilization (Fluo-4 NW) in cells stably transfected with M1 mAChR; assay type: cell-based; design: expressed in transfected cells; settings: for Kd: read-out: Effects on M1 mAChR: antagonist, Kd; for activity at 100 µM: remaining carbachol-induced effect, read-out: Antagonist at 100 μM on M1 mAChR inhibiting carbachol-induced effects from 100% to; for M1 agonist at 100 μM vs. carbachol (full muscarinic agonist, 100%): mobilization of intracellular Ca ions
T1 sequence (P11229 1-460): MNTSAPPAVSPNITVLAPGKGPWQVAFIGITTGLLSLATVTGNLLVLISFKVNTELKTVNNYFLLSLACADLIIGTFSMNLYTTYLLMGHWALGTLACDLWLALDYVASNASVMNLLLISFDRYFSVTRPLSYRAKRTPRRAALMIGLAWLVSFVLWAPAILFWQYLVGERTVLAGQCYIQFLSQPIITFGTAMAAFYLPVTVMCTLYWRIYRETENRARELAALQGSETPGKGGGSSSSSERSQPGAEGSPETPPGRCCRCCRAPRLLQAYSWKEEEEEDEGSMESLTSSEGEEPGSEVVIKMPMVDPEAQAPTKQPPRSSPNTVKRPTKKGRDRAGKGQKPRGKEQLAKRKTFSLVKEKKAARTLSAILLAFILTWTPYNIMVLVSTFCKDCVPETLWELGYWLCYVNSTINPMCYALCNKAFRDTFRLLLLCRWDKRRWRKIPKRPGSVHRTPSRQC
Source text: On the day of experiment, cells were fully confluent.
To evaluate selectivity for a subtype of mAChR, in particular the M1 mAChR vs. M3 and MS mAChR, the assays were calibrated using ligands that have a combined activity, e.g. M1 agonistic and M3 antagonistic or M1 agonistic and MS antagonistic profiles, respectively. This can eliminate effects due to different receptor reserves in cell-based assays.

Wistar rats = assay: Passive avoidance, trihexyphenidyl-induced memory impairment in rats; assay type: in vivo, rat; settings: NE-100 1 mg/kg alone
Source text: (§1) Trihexyphenidyl is a selective M1 muscarinic antagonist that crosses the blood brain barrier and induces memory and learning impairments (Bymaster et al., J Pharmacol Exp. Ther. 267: 16-24, 1993; Roldan et al., Neurosci. Lett. 230: 93-96, 1997; Kimura et al., Brain Res. 834: 6-12, 1999). […] Naive Wistar rats were used in the experiments below. The passive avoidance (PA) task consists of a training (acquisition) phase and a retention phase. In the training procedure each rat was individually placed in the small illuminated compartment and after 60 s. of familiarization/adaptation, the door to the large compartment was opened and the latency to enter was measured (Initial Latency) Immediately following entry into the dark compartment, the door was closed and inescapable foot shock (0.6 mA for 3 s) was delivered through the grid floor. […] After the acquisition trial the rat was returned to its home cage. Retention of the passive avoidance task was measured 24 h later, by again placing the rat in the light compartment and after a 60 s adaptation interval, the door was opened and the latency to re-enter the dark compartment was measured. […] Two separate experiments were conducted. […] In both experiments the rats were divided into 2 groups. One main group was treated with trihexyphenidyl (5 mg/kg, s.c) and the second main group was treated with vehicle (DDW-1 ml/kg, s.c.), 30 min before the shock.
In a further extension of these studies, retention of the passive avoidance task was measured 72 h later, by again placing the rat in the light compartment and after a 60 s adaptation interval, the door was opened and the latency to re-enter the dark compartment was measured. A cutoff point of 600 s was used for retention latency. […] Rats were divided into 2 groups. One group (N=30) was treated with trihexyphenidyl (5 mg/kg, s.c) and the second group (N=29) was treated with vehicle (DDW-1 ml/kg, s.c.), 30 min before the shock.

PC12M1 cells = assay: Mitochondrial apoptosis pathway, Bax and Bcl-2 immunoreactivity in PC12M1 cells
Experimental: These cells were partially differentiated (2-3 days), as observed under microscope. […] The pellet (rich mitochondrial fraction) was re-suspended with 200 μl Ripa buffer and lysed by rapid passage through a syringe needle (23G) for five to six times. The lysate was then used for further evaluation.
Bands were probed using the Rabbit Bax antibody (1:1000, Cell signaling, Cat. No. 2772) and Rabbit Bcl-2 antibody (1:1000, Cell signaling, Cat. No. 2870) followed by anti rabbit IgG (H&L) HRP (1:5,000, Jackson Immuno Research, 111-035-144).

rats = assay: Passive avoidance, MK-801-induced impairment in rats; assay type: in vivo, rat; settings: sc, retention 24 h later
Source text: as §1
MK-801 is an NMDA antagonist that induces cognitive behavioral impairments in rodents. […] In the first experiment (dose-finding study of MK-801) rats were divided into 4 groups. Three groups (N=27) were treated with MK-801 (50, 80 or 100 μg/kg, s.c) and the fourth group (N=10) was treated with vehicle (saline-1 ml/kg, s.c.), 30 min before the shock. […] One group (N=80) was treated with MK-801 (80 μg/kg, s.c) and the second group (N=59) was treated with the vehicle (saline-1 ml/kg, s.c.).

M1 mAChR [2] = biological target: T1, M1 mAChR; assay: αAPPs secretion in CHO cells double transfected with human APP695 and human M1 mAChR; assay type: cell-based; settings: doubly-transfected CHO cells; AF710B at 0.01 μM, AF710 at 0.1 μM, AF710A at 1 μM
Experimental: α-APPs Secretion studies following incubation with the tested compounds were performed as described in Haring, et al. J. Neurochem., 1998, 71:2094-103. […] A day later, cells were washed twice with serum free media, and treated with the test compound at various concentrations ranging from 0.1 nM to 100 μM. […] After 1 hour the conditioned medium was collected to cold Eppendorf tubes, which included a protease inhibitor cocktail (0.1 mM phenylmethylsulphonyl fluoride (PMSF); 5 μg/ml leupeptin; 5 μg/ml pepstatin and 5 units/ml aprotinin) for determining αAPPs release. The protein content of each sample was concentrated using Centricon tubes (Amicon, Beverly, Mass.). […] CHO cells double transfected with human APP695 and M1 mAChR APPs bands were probed using anti-amyloid beta protein (1:1000, monoclonal 6E10 antibody, MAB1560, Chemicon) and peroxidase-linked rabbit anti mouse IgG (1:5,000; Jackson Immuno Research, PA). PC12 cells stably transfected with M1 mAChR APPs bands were probed using the anti-Alzheimer precursor protein A4 (1:4,000; monoclonal 22C11 antibody, Boehringer Mannheim) and the peroxidase-linked rabbit anti mouse IgG (1:20,000; Jackson Immuno Research, PA). Following extensive washout, the membranes were treated with Western Lightning Chemiluminescence Reagent Plus (PerkinElmer Life Sciences, MA) followed by exposure to SuperRX film (Fuji Medical X-ray film, Tokyo, Japan). Quantitative determination of the total APPs bands was performed by Scion Image program (NIH, Bethesda, USA). Samples of control and CCh were assayed in parallel and thus enabled compilation of data from separate experiments.

Structure (SMILES): CC1SC2(CCN(C)CC2)CN1S(=O)(=O)c1ccc(F)cc1 (centres unmarked) [AF716, 3-(4-fluorobenzenesulfonyl)-2,8-dimethyl-1-thia-3,8-diazaspiro[4.5]-decane]
- Kd (M1 mAChR [1]): 7.7 µM

Structure (SMILES): CCCN(CCC)CCc1ccc(OC)c(OCCc2ccccc2)c1 [NE-100, reference compound]
- inducing deficits in the PA task, alone (Wistar rats): not significantly effective
- effect of sigma-1 antagonist on AF710B-mediated decrease of Bax elevation (PC12M1 cells; NGF deprivation): blocked these AF710B-mediated effects

Structure (SMILES): CCCC(CCC)C(=O)N1CC(C)OC12CCN(C)CC2 (centres unmarked) [AF713, 1-(2,8-dimethyl-1-oxa-4,8-diaza-spiro[4.5]dec-4-yl)-2-propyl-pentan-1-one]
- Kd (M1 mAChR [1]): 113 µM

Structure (SMILES): CC1SC2(CCN(C)CC2)CN1C(=O)c1cc(C(C)(C)C)c(O)c(C(C)(C)C)c1 (centres unmarked) [AF723, (3,5-di-tert-butyl-4-hydroxy-phenyl)-(2,8-dimethyl-1-thia-3,8-diaza-spiro[4.5]dec-3-yl)-methanone]
- activity at 100 µM (M1 mAChR [1]): < 50%

Structure (SMILES): CC1SC2(CCN(C)CC2)CN1C(=O)Cc1c[nH]c2ccccc12 (centres unmarked) [AF726]
- Kd (M1 mAChR [1]): 84.7 µM

Structure (SMILES): CC1OC2(CCN(C)CC2)CN1C(=O)CCc1c[nH]c2ccccc12 (single isomer, unassigned) [AF711A]
- M1 agonist at 100 μM vs. carbachol (full muscarinic agonist, 100%) (M1 mAChR [1]): 45%

Structure (SMILES): CC1OC2(CCN(C)CC2)C2C1N2S(=O)(=O)c1ccc(F)cc1 (centres unmarked) [AF721, 1′,4-dimethyl-6-[3-(4-fluorobenzenesulfonyl)]-spiro-(3-oxa-6-aza-bicyclo[3.1.0]hexane-2,4′-piperidine)]
- M1 agonist at 100 μM vs. carbachol (full muscarinic agonist, 100%) (M1 mAChR [1]): 13%

Structure (SMILES): CC1CN(S(=O)(=O)c2ccc(F)cc2)C2(CCN(C)CC2)O1 (centres unmarked) [AF714, 4-(4-fluoro-benzenesulfonyl)-2,8-dimethyl-1-oxa-4,8-diaza-spiro[4.5]-decane]
- Kd (M1 mAChR [1]): 9.7 µM

Structure (SMILES): CC1SC2(CCN(C)CC2)CN1C(=O)CCCc1c[nH]c2ccccc12 (centres unmarked) [AF725]
- activity at 100 µM (M1 mAChR [1]): < 50%

Structure (SMILES): CCC(=O)N1CC2(CCN(C)CC2)SC1C (centres unmarked) [AF724, 1-(2,8-dimethyl-1-thia-3,8-diaza-spiro[4.5]dec-3-yl)-propan-1-one]
- activity at 100 µM (M1 mAChR [1]): < 50%

Structure (SMILES): C[N+](C)(C)CCOC(N)=O [carbachol, reference compound]
- Aβ 25-35 induced neurotoxicity expressed as Bax/Bcl2 (PC12M1 cells; PC12M1 cells, 1 μM): 29%±11

Structure (SMILES): CCCC(CCC)C(=O)N1CC2(CCN(C)CC2)SC1C (centres unmarked) [AF717, 1-(2,8-dimethyl-1-thia-3,8-diazaspiro[4.5]dec-3-yl)-2-propylpentan-1-one]
- activity at 100 µM (M1 mAChR [1]): < 25%

Structure (SMILES): C[C@]12N[C@H](Cc3ccccc31)c1ccccc12 [MK-801, reference compound]
- retention performance, dose-finding (rats; 50 μg/kg): ineffective
- retention performance, dose-finding (rats; 80 and 100 μg/kg): impaired retention performance

Structure (SMILES): C[C@H]1SC2(CCN(C)CC2)CN1C(=O)CCc1c[nH]c2ccccc12 (single isomer, unassigned) [AF710A]
- maximal αAPPs secretion in comparison to untreated control cells (M1 mAChR [2]): 125%
- Kd (M1 mAChR [1]): 31 µM

Structure (SMILES): CC1OC2(CCN(C)CC2)CN1S(=O)(=O)c1ccc(F)cc1 (centres unmarked) [AF715, 3-(4-fluorobenzenesulfonyl)-2,8-dimethyl-1-oxa-3,8-diazaspiro[4.5]-decane]
- Kd (M1 mAChR [1]): 2.5 µM

Structure (SMILES): CC1OC2(CCN(C)CC2)CC1NC(=O)CCc1c[nH]c2ccccc12 (single isomer, unassigned) [AF730 II]
- M1 agonist at 100 μM vs. carbachol (full muscarinic agonist, 100%) (M1 mAChR [1]): 36%

Structure (SMILES): CC1OC2(CCN(C)CC2)CN1C(=O)CCc1c[nH]c2ccccc12 (single isomer, unassigned) [AF711B]
- Kd (M1 mAChR [1]): 42 µM

Structure (SMILES): CC1SC2(CCN(C)CC2)CN1C(=O)/C=C/c1c[nH]c2ccccc12 (centres unmarked) [AF727, (E)-1-(2,8-dimethyl-1-thia-3,8-diaza-spiro[4.5]dec-3-yl)-3-(1H-indol-3-yl)-propenone]
- Kd (M1 mAChR [1]): 8.7 µM

Structure (SMILES): CC1OC2(CCN(C)CC2)CC1NC(=O)CCc1c[nH]c2ccccc12 (single isomer, unassigned) [AF730, N-(2,8-dimethyl-1-oxa-8-aza-spiro[4.5]dec-3-yl)-3-(1H-indol-3-yl)-propionamide]
- M1 agonist at 100 μM vs. carbachol (full muscarinic agonist, 100%) (M1 mAChR [1]): 40%

Structure (SMILES): CCCC(CCC)C(=O)N1CC2(CCN(C)CC2)OC1C (centres unmarked) [AF712, 1-(2,8-dimethyl-1-oxa-3,8-diaza-spiro[4.5]dec-3-yl)-2-propyl-pentan-1-one]
- Kd (M1 mAChR [1]): 22.6 µM

Structure (SMILES): CC1OC2(CCN(C)CC2)C/C1=N\OC(=O)CCc1c[nH]c2ccccc12 (centres unmarked) [AF733, (3E)-2,8-dimethyl-1-oxa-8-azaspiro[4.5]decan-3-one-O—[3-(1H-indol-3-yl)propanoyl]oxime]
- M1 agonist at 100 μM vs. carbachol (full muscarinic agonist, 100%) (M1 mAChR [1]): 90%

Structure (SMILES): CC1OC2(CCN(C)CC2)C2C1N2C(=O)CCc1c[nH]c2ccccc12 (centres unmarked) [AF718C, 1′,4-dimethyl-6-(3-indolpropionyl)-spiro-(3-oxa-6-aza-bicyclo[3.1.0]-hexane-2,4′-piperidine)]
- M1 agonist at 100 μM vs. carbachol (full muscarinic agonist, 100%) (M1 mAChR [1]): 43%

Structure (SMILES): CC1CN(C(=O)CCc2c[nH]c3ccccc23)C2(CCN(C)CC2)O1 (centres unmarked) [AF706, 1-(2,8-dimethyl-1-oxa-4,8-diazaspiro[4.5]dec-4-yl)-3-(1H-indol-3-yl)-propan-1-one]
- Kd (M1 mAChR [1]): 39.7 µM
